Calls of active or inactive are those of the source. No cut-off for these calls is given here.
What was measured:
AML12 = experiment: Cytotoxicity against mouse AML12 cells assessed as reduction in cell viability at 0.01 to 100 uM measured after 5 days in presence of sorafenib by CellTiter-Glo assay; format: toxicity, cell-based; conditions: aml12, 120 h, dose 0.01-100 µM, time 5 day
[1] = tested on: Hepatocellular carcinoma organoid; experiment: Antiproliferative activity against C57BL/6 mouse Hepatocellular carcinoma organoids harboring myristoylated Akt1 and overexpressing Myc assessed as reduction in cell viability at 1 to 5 uM measured after 5 days in presence of sorafenib by Celltiter-glo assay; format: functional, tissue-based; conditions: Neoplasm, dose 1-5 µM, time 5.0 day
[2] = molecular target: T1, Peroxisome proliferator-activated receptor alpha (Homo sapiens) (UniProt Q07869); experiment: Agonist activity at PPARalpha (unknown origin) transfected in human HepG2 cells co-transfected with renilla reniformis luciferase reporter at 10 uM incubated for 24 hrs by dual-luciferase reporter gene assay; format: cell-based
T1 sequence (whole entry): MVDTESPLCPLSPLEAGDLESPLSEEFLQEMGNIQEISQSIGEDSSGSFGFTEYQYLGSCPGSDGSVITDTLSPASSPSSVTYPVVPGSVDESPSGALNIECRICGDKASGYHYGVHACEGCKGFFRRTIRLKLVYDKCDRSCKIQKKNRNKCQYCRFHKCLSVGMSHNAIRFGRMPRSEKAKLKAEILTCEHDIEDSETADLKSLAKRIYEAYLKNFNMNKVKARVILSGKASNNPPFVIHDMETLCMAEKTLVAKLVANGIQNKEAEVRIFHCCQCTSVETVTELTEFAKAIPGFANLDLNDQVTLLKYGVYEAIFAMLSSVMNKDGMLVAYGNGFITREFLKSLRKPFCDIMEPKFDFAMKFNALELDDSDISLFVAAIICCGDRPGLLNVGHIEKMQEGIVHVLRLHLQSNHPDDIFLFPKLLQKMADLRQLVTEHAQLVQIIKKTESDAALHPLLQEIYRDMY

Hep 3B2 [3] = experiment: Induction of endoplasmic reticulum (ER) stress in human Hep3B cells assessed as increase in GADD34 expression measured after 3 days in presence of sorafenib by Western blot analysis; format: functional, cell-based; conditions: time 3.0 day
[4] = molecular target: Estrogen receptor beta (Homo sapiens) (UniProt Q92731); experiment: Agonist activity at ERbeta (unknown origin) transfected in human HepG2 cells co-transfected with renilla reniformis luciferase reporter at 10 uM incubated for 24 hrs by dual-luciferase reporter gene assay; format: cell-based
[5] = molecular target: T2, Aryl hydrocarbon receptor (Homo sapiens, UniProt P35869); experiment: Agonist activity at AhR (unknown origin) transfected in human HepG2 cells co-transfected with renilla reniformis luciferase reporter at 10 uM incubated for 24 hrs by dual-luciferase reporter gene assay; format: cell-based; conditions: hepg2, 24 h
T2 sequence (P35869 whole entry): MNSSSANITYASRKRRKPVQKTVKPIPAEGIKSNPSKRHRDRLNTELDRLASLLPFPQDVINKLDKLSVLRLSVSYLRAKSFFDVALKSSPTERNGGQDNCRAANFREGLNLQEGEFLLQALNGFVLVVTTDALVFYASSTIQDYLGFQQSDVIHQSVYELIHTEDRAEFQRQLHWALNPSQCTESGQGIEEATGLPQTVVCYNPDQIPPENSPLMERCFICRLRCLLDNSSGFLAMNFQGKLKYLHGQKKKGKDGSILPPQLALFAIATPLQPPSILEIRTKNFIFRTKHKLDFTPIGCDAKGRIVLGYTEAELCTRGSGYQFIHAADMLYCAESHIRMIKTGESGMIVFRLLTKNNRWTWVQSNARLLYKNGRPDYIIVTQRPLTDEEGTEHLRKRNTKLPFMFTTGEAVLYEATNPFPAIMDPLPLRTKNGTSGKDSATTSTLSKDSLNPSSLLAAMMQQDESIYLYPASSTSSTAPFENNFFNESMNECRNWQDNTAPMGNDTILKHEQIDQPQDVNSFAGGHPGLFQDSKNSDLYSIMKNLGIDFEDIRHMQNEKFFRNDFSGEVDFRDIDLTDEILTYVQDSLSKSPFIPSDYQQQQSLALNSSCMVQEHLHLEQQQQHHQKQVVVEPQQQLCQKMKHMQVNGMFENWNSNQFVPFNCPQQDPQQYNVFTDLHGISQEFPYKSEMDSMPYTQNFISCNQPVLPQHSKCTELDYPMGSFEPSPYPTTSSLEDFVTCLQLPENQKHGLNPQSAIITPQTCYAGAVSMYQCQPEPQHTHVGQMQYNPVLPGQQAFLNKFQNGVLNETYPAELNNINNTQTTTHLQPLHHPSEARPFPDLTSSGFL

[6] = molecular target: T3, Estrogen receptor (Homo sapiens) (UniProt P03372); experiment: Agonist activity at ERalpha (unknown origin) transfected in human HepG2 cells co-transfected with renilla reniformis luciferase reporter at 10 uM incubated for 24 hrs by dual-luciferase reporter gene assay; format: cell-based
T3 sequence (whole entry): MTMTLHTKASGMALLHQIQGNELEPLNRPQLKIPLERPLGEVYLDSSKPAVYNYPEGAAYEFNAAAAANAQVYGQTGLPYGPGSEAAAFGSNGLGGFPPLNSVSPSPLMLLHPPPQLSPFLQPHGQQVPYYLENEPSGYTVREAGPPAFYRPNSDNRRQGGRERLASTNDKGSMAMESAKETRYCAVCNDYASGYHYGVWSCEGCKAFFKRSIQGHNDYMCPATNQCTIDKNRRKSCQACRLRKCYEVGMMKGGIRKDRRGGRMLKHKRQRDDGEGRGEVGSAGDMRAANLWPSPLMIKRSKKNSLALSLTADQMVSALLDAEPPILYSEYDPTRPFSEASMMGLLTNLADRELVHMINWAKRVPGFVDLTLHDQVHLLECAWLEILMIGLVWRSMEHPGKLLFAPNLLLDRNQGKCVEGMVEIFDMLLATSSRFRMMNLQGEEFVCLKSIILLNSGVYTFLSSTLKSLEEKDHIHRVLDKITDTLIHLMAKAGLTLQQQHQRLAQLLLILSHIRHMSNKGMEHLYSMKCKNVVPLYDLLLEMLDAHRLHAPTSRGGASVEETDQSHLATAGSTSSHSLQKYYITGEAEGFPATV

Hep 3B2 [7] = experiment: Antiproliferative activity against human Hep3B cells assessed as reduction in cell viability measured after 5 days in presence of sorafenib by Celltiter-glo assay; format: functional, cell-based; conditions: 120 h
Hep 3B2 [8] = experiment: Antiproliferative activity against human Hep3B cells assessed as reduction in cell viability measured after 5 days by Celltiter-glo assay; format: functional, cell-based; conditions: time 5.0 day
BNL CL.2 = experiment: Cytotoxicity against mouse BNL CL.2 cells assessed as reduction in cell viability at 0.01 to 100 uM measured after 5 days in presence of sorafenib by CellTiter-Glo assay; format: toxicity, cell-based; conditions: bnl cl.2, 120 h, dose 0.01-100 µM, time 5 day
Hep 3B2 [9] = experiment: Induction of oxidative stress in human Hep3B cells assessed as increase in SOD1 expression measured after 3 days in presence of sorafenib by Western blot analysis; format: functional, cell-based; conditions: time 3.0 day

Chain of Estrogen receptor beta (Homo sapiens) (Q92731 whole entry): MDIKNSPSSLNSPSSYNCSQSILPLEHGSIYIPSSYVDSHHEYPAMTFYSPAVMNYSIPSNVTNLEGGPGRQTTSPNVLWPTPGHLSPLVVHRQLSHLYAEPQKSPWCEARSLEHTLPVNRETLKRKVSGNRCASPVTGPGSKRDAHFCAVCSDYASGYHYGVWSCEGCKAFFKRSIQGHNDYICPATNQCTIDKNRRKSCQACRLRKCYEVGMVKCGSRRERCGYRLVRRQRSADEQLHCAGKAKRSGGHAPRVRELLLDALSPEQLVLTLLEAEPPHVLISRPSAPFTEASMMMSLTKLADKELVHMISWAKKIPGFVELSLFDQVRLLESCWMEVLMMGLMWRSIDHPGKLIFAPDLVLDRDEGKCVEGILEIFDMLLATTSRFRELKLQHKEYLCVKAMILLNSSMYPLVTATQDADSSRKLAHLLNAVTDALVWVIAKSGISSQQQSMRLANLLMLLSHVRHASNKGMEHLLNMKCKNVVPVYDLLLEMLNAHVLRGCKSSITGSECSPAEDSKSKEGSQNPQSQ

Q: With O=C1C(Nc2ccc(N3CCCCC3)cc2)=C(c2ccccc2)C(=O)N1Cc1ccccc1 as the compound, how does the Activity (AML12) read?
A: Toxic

Q: And the Activity [1]?
A: Active

Q: And the Activity [2]?
A: inactive

Q: And the Activity (Hep 3B2 [3])?
A: Active

Q: And the Activity [4]?
A: inactive

Q: And the Activity [5]?
A: Not_active

Q: What about the Activity [6] of the same compound?
A: inactive

Q: And the EC50 (Hep 3B2 [7])?
A: 1700 nM

Q: And the Activity (Hep 3B2 [8])?
A: inactive

Q: What about the Activity (BNL CL.2) of the same compound?
A: Toxic

Q: And the Activity (Hep 3B2 [9])?
A: Active

Source: ChEMBL document CHEMBL6115048, “Uncovering α-Selectivity for Liver X Receptor Agonists for Lipotoxic Cancer Therapies” (J Med Chem, 2025)
